# Experimental data taken from patent US11472843B2, “Malacidins and methods of use” (The Rockefeller University, priority 2017, dated 2022).
# What was measured:
# S. aureus USA300 = experiment: MIC assay, S. aureus USA300 (MRSA); format: cell-based, Staphylococcus aureus
# Description: (§1) MIC assays were performed in duplicate in 96-well microtiter plates on the basis of the protocol recommended by the Clinical and Laboratory Standards Institute (Cockerill, 2012, Clinical and Laboratory Standards Institute). All presented data are the average of at least three independent assays. Stock solutions of malacidin or daptomycin (2 mg ml^−1 in H2O) were added to the first well in a row and serially diluted (twofold per transfer) across the microtiter plate. CaCl2 was supplemented to media at a final concentration of 15 mM and fetal bovine serum (ATCC) was added to media (1:10) to test the effect of serum. Overnight cultures of bacteria were diluted 5,000-fold, and 50 μl was used as an inoculum in each well. MIC values were determined by visual inspection after 18 h incubation (30° C., static growth). For the enhanced calcium titration experiments, standard MIC assays were performed with methicillin-resistant Staphylococcus aureus (MRSA) PFGE strain type USA300 in media supplemented with CaCl2 at: 25.0, 18.8, 14.1, 7.03, 3.52, 2.50, 1.76, 0.880, 0.440, 0.250 and 0 mM. To assess the effects of monovalent and divalent cations on malacidin activity, standard MIC assays were performed with MRSA USA300 in media supplemented with 15 mM CaCl2, MgCl2, MnCl2, ZnCl2, SrCl2, NaCl and KCl. To evaluate the effects of pulmonary surfactants on activity against a community-acquired pneumonia-causing pathogen, standard MIC assays were performed with Streptococcus pneumoniae TCH8431 in media supplemented with both 15 mM CaCl1 and Survanta (beractant) at a final concentration of 5, 1, 0.5, 0.25 or 0% (volume/volume (v/v) percent).
# S. aureus NRS100 = experiment: MIC assay, S. aureus NRS100; format: cell-based, Staphylococcus aureus; conditions: β-lactams
# Description: as §1
# S. aureus NRS146 = experiment: MIC assay, S. aureus NRS146; format: cell-based, Staphylococcus aureus; conditions: β-lactams
# Description: as §1
# E. faecium Com15 = experiment: MIC assay, E. faecium Com15; format: cell-based, Enterococcus faecium
# Description: as §1
# [1] = tested on: Streptococcus mutans UA159; experiment: MIC assay, S. mutans; format: cell-based
# Description: as §1, with “To evaluate the effects of pulmonary surfactants on activity against a community-acquired pneumonia-causing pathogen, standard MIC assays were performed with Streptococcus pneumoniae TCH8431 in media supplemented with both 15 mM CaCl1 and Survanta (beractant) at a final concentration of 5, 1, 0.5, 0.25 or 0% (volume/volume (v/v) percent).” left out
# [2] = tested on: Acinetobacter baumannii ATCC 17978; experiment: MIC assay, A. baumannii; format: cell-based; conditions: range of at least three independent experiments
# Description: as §1
# [3] = tested on: Klebsiella pneumonia ATCC 10031; experiment: MIC assay, Klebsiella pneumonia; format: cell-based
# Description: as §1
# [4] = tested on: Pseudomonas aeruginosa PAO1; experiment: MIC assay, P. aeruginosa; format: cell-based
# Description: as §1
# [5] = tested on: Salmonella enterica IR 715; experiment: MIC assay, Salmonella enterica; format: cell-based
# Description: as §1
# HEK293 cells = format: cell-based, human; conditions: viability, in the presence of calcium, 4.5 h
# Description: (§2) Cytotoxicity against human cell lines was tested using an ATP release assay, CelITiter-Glo (Promega), according to the manufacturer's instructions. HEK293 cells (293FT, Thermo Fisher Scientific, no. R700-07) and MRC5 cells (ATCC CCL-171) were grown in complete DMEM media supplemented with 10% FBS, and were inspected visually for authentication and tested for mycoplasma contamination using a MycoAlert detection kit (Lonza). Cells were grown to confluence, trypsinized, counted and plated in 384-well cell culture plates at an appropriate density (2,500 cells per well for HEK293 and 1000 cells per well for MRC5). The test compound was added 24 h later in the presence of calcium, and viability was determined after 4.5 h of incubation. Experiments were performed with biological replicates. Haemolytic activity was evaluated by a red blood cell disc diffusion assay. Twenty-microlitre stocks of malacidin A and Triton X-100 were infused on filter discs, dried completely and then overlaid on 5% sheep blood agar plates (Hardy Diagnostics). The plates were incubated for 24 h at 20° C., and then checked for lysis.
# MRC5 cells = format: cell-based, human
# Description: as §2
# [6] = tested on: red blood cell (5% sheep blood agar plates); format: cell-based
# Description: as §2
# MRSA USA300 [7] = experiment: Membrane leakage assay (SYTOX green); format: cell-based, Staphylococcus aureus; conditions: 20 μg ml^−1
# Description: (§3) The effects of malacidin on membrane integrity was assessed using SYTOX green. In brief, single colonies of MRSA USA300 were grown in LB media with and without 15 mM CaCl2 to an OD600 nm of 0.35. Nine hundred microlitres of cells were mixed with 100 μL of 17 μM SYTOX green dye (Thermo Fisher). The resulting mixture was incubated for 5 min at 22° C., and then distributed to a microtiter plate at 50 μl per well. An initial reading of fluorescence pre-antibiotic addition was measured at excitation and emission wavelengths of 488 nm and 523 nm, respectively. Fifty microlitres of antibiotics was added to respective wells at a final concentration of 20 μg ml^−1. Measurements were immediately collected for 10 min. To assess the effects of malacidin on membrane depolarization, similar assays were set up using the membrane potential probe, DiBAC4 (bis-(1,3-dibutylbarbituric acid)trimethine oxonol). Single colonies of MRSA USA300 were grown in LB media with and without 15 mM CaCl2 to an OD600 nm of 0.35. Nine hundred microlitres of cells were mixed with 100 μl of 20 μg ml DiBAC4dye (Thermo Fisher). The resulting mixture was incubated for 5 min at 22° C., and then distributed to a microtiter plate at 50 μl per well. An initial reading of fluorescence pre-antibiotic addition was measured at excitation and emission wavelengths of 492 nm and 515 nm, respectively. Fifty microlitres of antibiotics was added to respective wells at a final concentration of 20 μg ml^−1. Measurements were immediately collected for 10 min. Representative examples from three technical replicates are shown.
# MRSA USA300 [8] = experiment: Membrane depolarization assay (DiBAC4); format: cell-based, Staphylococcus aureus; conditions: S. aureus cells pretreated with DiBAC4; 20 μg ml^−1
# Description: as §3, with “Fifty microlitres of antibiotics was added to respective wells at a final concentration of 20 μg ml^−1. Measurements were immediately collected for 10 min. Representative examples from three technical replicates are shown.” left out
substance,measurement,setting,value
malacidin A,Dependence of antibiosis (MIC) against MRSA on calcium,"S. aureus USA300; MRSA USA300, CaCl2 0 to 25.0 mM",calcium-dependent
same,MIC,"S. aureus USA300; S. aureus USA300 + 10% serum, 15 mM CaCl2",0.2-0.8 μg m1^−1
same,MIC,"S. aureus USA300; S. aureus USA300, acquired resistance β-lactams, 15 mM CaCl2",0.2-0.8 μg m1^−1
same,MIC,"S. aureus USA300; Staphylococcus aureus + 10% Serum, USA300",0.2 to 0.8 µg/mL
same,MIC,"S. aureus USA300; Staphylococcus aureus USA300, β-lactams (Methicillin, Oxacillin, Penicillin)",0.2 to 0.8 µg/mL
same,MIC,"S. aureus NRS100; S. aureus NRS100, tetracycline, 15 mM CaCl2",0.2-0.8 μg m1^−1
same,MIC,"S. aureus NRS100; Staphylococcus aureus NRS100, Tetracycline",0.2 to 0.8 µg/mL
same,MIC,"S. aureus NRS146; S. aureus NRS146, vancomycin (VISA), 15 mM CaCl2",0.4-0.8 μg m1^−1
same,MIC,"S. aureus NRS146; Staphylococcus aureus NRS146, Vancomycin (VISA)",0.4 to 0.8 µg/mL
same,MIC,"E. faecium Com15; E. faecium Com15, 15 mM CaCl2",0.8-2.0 μg m1^−1
same,MIC,E. faecium Com15; Enterococcus faecium Com15,0.8 to 2.0 µg/mL
same,MIC,"[1]; S. mutans, 15 mM CaCl2",0.1-0.2 μg m1^−1
same,MIC,[1]; Streptococcus mutans UA159,0.1 to 0.2 µg/mL
same,MIC,[2],>100 µg/mL
same,MIC,[3],>100 µg/mL
same,MIC,[4],>100 µg/mL
same,MIC,[5],>100 µg/mL
same,IC50,HEK293 cells,>100 μg m1^−1
same,MIC (a = Viability assessed by ATP release assay),MRC5 cells,>100a μg mL^−1
same,IC50,"MRC5 cells; MRC5, viability, in the presence of calcium, 4.5 h",>100 μg m1^−1
same,Haemolytic activity,[6],no hemolytic effects
same,Membrane leakage (SYTOX green or DiBAC4),MRSA USA300 [7]; absence of calcium supplementation,No membrane leakage
same,Membrane leakage (SYTOX green fluorescence),MRSA USA300 [7]; with calcium (15 mM CaCl2),does not cause MRSA membrane leakage
same,Loss of membrane potential (DiBAC4),MRSA USA300 [8],no significant loss of membrane potential
